# Source: US20100292185A1, “BETA-LACTAMASE INHIBITORS” (priority 2009, published 2010)
# Where a name gives a salt, the structure may show the parent alone. Read-outs that look alike come from different tables or passages of the source.
# Legend:
# [1] = system: E. coli expressing the Class A ESBL SHV-5; test: In vitro antibacterial assay of β-lactamase inhibition (broth microdilution MIC), E. coli SHV-5; assay type: cell-based; conditions: in presence of Ceftazidime 8 μg/ml (Examples 1-56)
# Text: (§1) To determine the ability of test compounds to potentiate the inhibition of the growth of bacterial strains producing beta-lactamase enzymes, classic cell based screening assays were employed. Five bacteria strains producing beta-lactamase enzymes were used: K. pneumoniae expressing the Class A Extended Spectrum Beta-Lactamase (ESBL) CTX-M-15, E. coli expressing the Class A ESBL SHV-5, E. cloacae expressing the Class C P99+, K. pneumoniae expressing the Class A carbapenemase KPC-2, and P. aeruginosa expressing the Class B metallo β-lactamase VIM-2. In order to evaluate the ability of test compounds to inhibit beta-lactamase activity, Applicants used a modification of the broth microdilution assay. The assay was conducted in Cation Adjusted Mueller Hinton Broth (CAMHB, BD # 212322, BD Diagnostic Systems, Sparks, Md.). Bacteria strains were grown for 3-5 hours in CAMBH broth. All five strains were grown in presence of 50 μg/mL ampicillin to ensure resistance is maintained. In the meantime, test compounds were diluted in DMSO to a 0.1 mg/mL stock. The compounds were added to a microtiter plate and were diluted in 2-fold serial dilutions in CAMHB in a final concentration range of 8 μg/mL to 0.015 μg/ml. […] Each of these compound plates are made in quadruplicate, one for each bacteria strain. In addition to the titration of test compounds the MICs of a panel of cephalosporins is also tested to ensure the strains are behaving consistently from test to test. Once the test compound and cephalosporin are added the plates can be inoculated. Inocula are conducted according to CLSI broth microdilution method. After inoculation the plates are incubated for 16-20 hours at 37° C. then the Minimal Inhibitory Concentration (MIC) of the test compound is determined visually.
# (§2) Using the methodology described above, examples of the current invention were evaluated for their ability to inhibit the growth of β-lactamase producing bacteria in the presence of a β-lactam antibiotic.
# CTX-M15 β-lactamase = target: T1, CTX-M15 β-lactamase (Escherichia coli, UniProt Q9EXV5); test: β-lactamase enzyme inhibition assay (nitrocefin substrate), CTXM-15; assay type: biochemical
# T1 construct: expressed as native untagged proteins; made in house; host or cells: E. coli BL21(DE3)
# Procedure: (§3) Isolation of β-lactamases. For SHV-5, p99 AmpC, KPC-2 and CTX-M15 β-lactamases, E. coli BL21(DE3) bacterial cells carrying expression plasmids (expressed as native untagged proteins) for the individual β-lactamases were grown in 1 L of Superbroth (Teknova Inc. Hollister, Calif.) supplemented with 100 μg/ml kanamycin and 1×5052 (0.5% glycerol, 0.05% glucose and 0.2% α-lactose) at 35° C. for 18-20 hours. Cells were harvested by centrifugation (4,000×g, 4° C., 20 min), and resuspended in 50 ml of 10 mM HEPES pH 7.5 (1/20 of the initial volume). The cells were lysed by sonication (5 pulses of 45 seconds) at 45 W on ice. The lysates were clarified by centrifugation at 10,000×g for 40 minutes at 4° C. Samples were diluted 5-fold in 50 mM sodium acetate pH 5.0, stored overnight at 4° C., after which they were centrifuged at 10,000×g for 30 minutes to clarify, and filtered through 0.45 μm filters. The samples were loaded onto a 5 ml Capto S sepharose cation exchange column (GE Healthcare) pre-equilibrated with 50 mM sodium acetate pH 5.0. The column was washed with 5 column volumes of 50 mM sodium acetate pH 5.0 to wash out unbound protein and a linear gradient of NaCl (0 to 500 mM) was used to elute the protein (over 16 CV) from the column. Fractions were assayed for β-lactamase activity using Centa (Calbiochem, Gibbstown, N.J.) as a reporter β-lactamase substrate for activity in the isolated fractions. Active fractions were pooled, concentrated and further purified by gel filtration chromatography on a Superdex 75 prep grade gel filtration column (GE Healthcare, Piscataway, N.J.) pre-equilibrated in 50 mM Hepes pH 7.5, 150 mM NaCl. Active fractions were pooled concentrated, quantitated by BCA protein determination (Thermo Scientific, Rockford, Ill.), and frozen at −80° C. in 20% glycerol until use.
# (§4) β-lactamase Inhibition. To determine the level of inhibition of β-lactamase enzymes, compounds were diluted in PBS at pH 7.0 to yield concentrations between 100 and 0.005 μM in microtiter plates. An equal volume of diluted enzyme stock was added, and the plates were incubated at 37° C. for 10 min. Nitrocefin solution was then dispensed as substrate into each well at a final concentration of 100 μM, and the plates were immediately read with the kinetic program at 486 nm for 10 min on the SPECTRAMAX® Plus^384 (high-throughput microplate spectrophotometer; Molecular Devices Corp., Sunnyvale, Calif.). Maximum rates of metabolism were then compared to those in control wells (without inhibitors), and percentages of enzyme inhibition were calculated for each concentration of inhibitor. The concentration of inhibitor needed to reduce the initial rate of hydrolysis of substrate by 50% (IC50) was calculated as the residual activity of β-lactamase at 486 nm using the SoftMax Pro 5.0 software (Molecular Devices Corp.).
# (§5) Using the methodology described above, examples of the current invention were evaluated for their ability to inhibit β-lactamase enzymes. The results of these assays are summarized in Table 2 for representative enzymes across different subtypes (note SHV-5 and CTXM-15 exemplify different subclasses of Ambler Class A Extended Spectrum Beta Lactamases, KPC-2 exemplifies Class A carbapenemases, P99 represents chromosomal Class C AmpC, VIM-2 exemplifies subclass B1 of metallo-β-lactamases, and OXA-23 represents chromosome-encoded Class D oxacillin-hydrolyzing β-lactamases), NT=not tested.
# SHV-5 β-lactamase = target: T2, SHV-5 β-lactamase (Klebsiella pneumoniae, UniProt P0A3M1); test: β-lactamase enzyme inhibition assay (nitrocefin substrate), SHV-5; assay type: biochemical
# T2 construct: expressed as native untagged proteins; made in house; host or cells: E. coli BL21(DE3)
# Procedure: as §3, §4, §5
# [2] = system: P. aeruginosa expressing the Class B metallo β-lactamase VIM-2; test: In vitro antibacterial assay of β-lactamase inhibition (broth microdilution MIC), P. aeruginosa VIM-2; assay type: cell-based; conditions: in presence of Ceftazidime 16 μg/mL (Examples 1-56)
# Text: as §1, §2
# p99 AmpC β-lactamase = target: T3, p99 AmpC β-lactamase (Enterobacter cloacae, UniProt P05364); test: β-lactamase enzyme inhibition assay (nitrocefin substrate), P99 AmpC; assay type: biochemical
# T3 construct: expressed as native untagged proteins; made in house; host or cells: E. coli BL21(DE3)
# Procedure: as §3, §4, §5
# [3] = system: K. pneumoniae expressing the Class A carbapenemase KPC-2; test: microbe, parasite or virus in culture; assay type: cell-based; conditions: in presence of Ceftazidime 8 μg/ml (Examples 1-56)
# Text: as §1, §2
# [4] = system: E. cloacae expressing the Class C P99+; test: In vitro antibacterial assay of β-lactamase inhibition (broth microdilution MIC), E. cloacae P99+; assay type: cell-based; conditions: in presence of Ceftazidime 8 μg/ml (Examples 1-56)
# Text: as §1, §2
# [5] = system: K. pneumoniae expressing the Class A Extended Spectrum Beta-Lactamase (ESBL) CTX-M-15; test: In vitro antibacterial assay of β-lactamase inhibition (broth microdilution MIC), K. pneumoniae CTX-M-15; assay type: cell-based; conditions: in presence of Ceftazidime 8 μg/ml (Examples 1-56)
# Text: as §1, §2
# KPC-2 β-lactamase = target: T4, KPC-2 β-lactamase (Klebsiella pneumoniae, UniProt Q9F663); test: β-lactamase enzyme inhibition assay (nitrocefin substrate), KPC-2; assay type: biochemical
# T4 construct: expressed as native untagged proteins; made in house; host or cells: E. coli BL21(DE3)
# Procedure: as §3, §4, §5
# [6] = nitrocefin 100 μM, 37° C., PBS pH 7.0, read-out: P99 AmpC IC50
# T4 sequence (Q9F663 25-293 limits assumed): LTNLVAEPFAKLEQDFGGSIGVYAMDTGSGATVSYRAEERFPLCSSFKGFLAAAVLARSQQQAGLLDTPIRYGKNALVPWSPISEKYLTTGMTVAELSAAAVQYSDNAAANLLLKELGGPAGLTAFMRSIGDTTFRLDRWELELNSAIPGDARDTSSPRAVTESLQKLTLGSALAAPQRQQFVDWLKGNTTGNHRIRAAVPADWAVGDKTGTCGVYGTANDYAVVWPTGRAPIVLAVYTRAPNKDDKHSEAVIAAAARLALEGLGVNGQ
# T2 sequence (P0A3M1 22-286): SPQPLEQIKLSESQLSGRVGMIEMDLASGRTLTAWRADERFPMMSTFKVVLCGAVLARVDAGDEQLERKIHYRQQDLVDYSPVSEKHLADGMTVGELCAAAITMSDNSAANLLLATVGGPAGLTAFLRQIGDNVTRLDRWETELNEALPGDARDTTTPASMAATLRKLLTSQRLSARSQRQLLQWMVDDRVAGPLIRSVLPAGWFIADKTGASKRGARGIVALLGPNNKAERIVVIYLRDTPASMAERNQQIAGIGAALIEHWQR
# T3 sequence (P05364 21-381): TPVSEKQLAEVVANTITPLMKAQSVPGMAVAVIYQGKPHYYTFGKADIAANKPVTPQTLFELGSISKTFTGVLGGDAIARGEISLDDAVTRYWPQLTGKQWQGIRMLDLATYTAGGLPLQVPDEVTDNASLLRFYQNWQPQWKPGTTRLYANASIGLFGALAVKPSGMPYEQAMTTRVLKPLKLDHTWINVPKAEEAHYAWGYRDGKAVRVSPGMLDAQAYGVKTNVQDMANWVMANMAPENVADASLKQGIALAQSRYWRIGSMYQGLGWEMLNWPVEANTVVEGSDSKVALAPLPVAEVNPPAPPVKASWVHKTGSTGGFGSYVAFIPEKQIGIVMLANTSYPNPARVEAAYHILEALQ
# T1 sequence (Q9EXV5 entry or part of it): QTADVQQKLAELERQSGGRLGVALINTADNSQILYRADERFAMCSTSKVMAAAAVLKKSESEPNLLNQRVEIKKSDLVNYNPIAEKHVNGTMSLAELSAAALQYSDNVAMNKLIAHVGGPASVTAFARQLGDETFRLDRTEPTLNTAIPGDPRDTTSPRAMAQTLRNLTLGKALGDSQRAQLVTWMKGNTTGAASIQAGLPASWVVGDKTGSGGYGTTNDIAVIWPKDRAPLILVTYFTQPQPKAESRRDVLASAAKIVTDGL
Compound,"MIC of example compound, E. coli SHV-5 [1]",IC50 (CTX-M15 β-lactamase),IC50 (SHV-5 β-lactamase),"MIC of example compound, P. aeruginosa VIM-2 [2]",IC50 (p99 AmpC β-lactamase; [6]),"MIC of example compound, K. pneumoniae KPC-2 [3]","MIC of example compound, E. cloacae P99+ [4]","MIC of example compound, K. pneumoniae CTX-M-15 [5]",IC50 (KPC-2 β-lactamase),IC50 (p99 AmpC β-lactamase),"IC50 (CTX-M15 β-lactamase; nitrocefin 100 μM, 37° C., PBS pH 7.0, read-out: CTXM-15 IC50)","IC50 (SHV-5 β-lactamase; nitrocefin 100 μM, 37° C., PBS pH 7.0, read-out: SHV-5 IC50)","IC50 (KPC-2 β-lactamase; nitrocefin 100 μM, 37° C., PBS pH 7.0, read-out: KPC-2 IC50)"
"CC(=O)N(CCN)Cc1cccc(C(=O)N[C@@H](Cc2cccc(C(=O)O)c2O)B(O)O)c1 [Example 24, (1R)-(3-{[acetyl-(2-amino-ethyl)-amino]-methyl}-benzoylamino)-(3-carboxy-2-hydroxy)benzyl-methylboronic acid formate]",8 µg/mL,4 nM,350 nM,>8 µg/mL,2 nM,0.12 µg/mL,1 µg/mL,1 µg/mL,18 nM,–,–,–,–
"O=C(N[C@@H](Cc1cccc(C(=O)O)c1O)B(O)O)c1cccc(CNCCCO)c1 [Example 25, (1R)-[3-{(3-hydroxy-propylamino)-methyl}-benzoylamino]-(3-carboxy-2hydroxy)benzyl-methylboronic acid formate]",8 µg/mL,3 nM,580 nM,>8 µg/mL,0.9 nM,0.03 µg/mL,0.5 µg/mL,1 µg/mL,20 nM,–,–,–,–
"O=C(N[C@@H](Cc1cccc(C(=O)O)c1O)B(O)O)c1cccc(CNc2cccnc2)c1 [Example 26, (1R)-[3-(pyridin-3-ylaminomethyl)-benzoylamino]-(3-carboxy-2hydroxy)benzyl-methylboronic acid formate]",>8 µg/mL,1 nM,94 nM,>8 µg/mL,0.4 nM,0.5 µg/mL,2 µg/mL,4 µg/mL,11 nM,–,–,–,–
"CN(C)Cc1cccc(C(=O)N[C@@H](Cc2cccc(C(=O)O)c2O)B(O)O)c1 [Example 27, (1R)-(3-dimethylaminomethyl-benzoylamino)-(3-carboxy-2-hydroxy)benzyl-methylboronic acid formate]",>8 µg/mL,3 nM,312 nM,>8 µg/mL,1.4 nM,0.03 µg/mL,0.5 µg/mL,1 µg/mL,14 nM,–,–,–,–
"CC(C)(O/N=C(\C(=O)N[C@@H](Cc1cccc(C(=O)O)c1O)B(O)O)c1csc(NC(=O)CN)n1)C(=O)O.Cl [Example 50, 3-{2(R)-[2-[2-(2-amino-acetylamino)-thiazol-4-yl]-2(Z)-(1-carboxy-1-methyl-ethoxyimino)-acetylamino]-2-borono-ethyl}-2-hydroxy-benzoic acid hydrochloride]",>8 µg/mL,34 nM,24 nM,>8 µg/mL,23 nM,>8 µg/mL,>8 µg/mL,>8 µg/mL,158 nM,–,–,–,–
"CO/N=C(\C(=O)N[C@@H](Cc1cccc(C(=O)O)c1O)B(O)O)c1csc(NC(=O)CN)n1.Cl [Example 51, 3-(2(R)-{2-[2-(2-amino-acetylamino)-thiazol-4-yl]-2(Z)-methoxyimino-acetylamino}-2-borono-ethyl)-2-hydroxy-benzoic acid hydrochloride]",>8 µg/mL,40 nM,15 nM,>8 µg/mL,17 nM,>8 µg/mL,>8 µg/mL,>8 µg/mL,58 nM,–,–,–,–
"CO/N=C(\C(=O)N[C@@H](Cc1cccc(C(=O)O)c1O)B(O)O)c1csc(NC(=O)[C@@H](N)CCCCN)n1 [Example 52, 3-(2(R)-{2-[2-(2(S),6-diamino-hexanoylamino)-thiazol-4-yl]-2(Z)-methoxyimino-acetylamino}-2-borono-ethyl)-2-hydroxy-benzoic acid hydrochloride]",>8 µg/mL,55 nM,26 nM,>8 µg/mL,–,2 µg/mL,>8 µg/mL,>8 µg/mL,89 nM,8 nM,–,–,–
(1R)-[4-(1-amino-cyclopropyl)]-benzoylamino]-(3-carboxy-2-hydroxy)benzyl-methylboronic acid formate [Example 22],8 µg/mL,–,–,>8 µg/mL,34 nM,0.007 µg/mL,0.5 µg/mL,2 µg/mL,–,–,0.6 nM,> 1000 nM,5 nM
